Consider four molecules from ChEMBL document CHEMBL5608213, “Synthesis of furanotriterpenoids from betulin and evaluation of Tyrosyl-DNA phosphodiesterase 1 (Tdp1) inhibitory properties of new semi-synthetic triterpenoids” (Eur J Med Chem, 2024).

Data set [1] has as its system A549. Description: Cytotoxicity against human A549 cells incubated for 72 hrs by MTT assay. Format: functional.
Data set [2] deals with MCF7. The experiment in a line: Cytotoxicity against human MCF7 cells incubated for 72 hrs by MTT assay. Format: functional.
Data set [3] deals with MDA-MB-231. The experiment in a line: Cytotoxicity against human MDA-MB-231 cells incubated for 72 hrs by MTT assay. Format: functional.
Data set [4] concerns MDA-MB-453. Description: Cytotoxicity against human MDA-MB-453 cells incubated for 72 hrs by MTT assay. It counts as functional.
Data set [5] is described as follows: Cytotoxicity against human HeLa-V cells assessed as reduction in cell viability incubated for 72 hrs in presence of 0.5 uM topotecan by MTT assay. Format: functional.
The test system of data set [6] is HCT-116. Description: Cytotoxicity against human HCT-116 cells incubated for 72 hrs by MTT assay. Format: functional.
Data set [7] in a line: Cytotoxicity against human MCF-10A cells incubated for 72 hrs by MTT assay. It counts as toxicity, cell-based.
For data set [8], the target named is Tyrosyl-DNA phosphodiesterase 1 (Homo sapiens, UniProt Q9NUW8). Description: Inhibition of Tdp1 (unknown origin) using 5'-[FAM]AACGTCAGGGTCTTCC[BHQ1]-3' as substrate measured every 55 sec by fluorescence based analysis.
Tyrosyl-DNA phosphodiesterase 1, sequence (Q9NUW8 whole entry): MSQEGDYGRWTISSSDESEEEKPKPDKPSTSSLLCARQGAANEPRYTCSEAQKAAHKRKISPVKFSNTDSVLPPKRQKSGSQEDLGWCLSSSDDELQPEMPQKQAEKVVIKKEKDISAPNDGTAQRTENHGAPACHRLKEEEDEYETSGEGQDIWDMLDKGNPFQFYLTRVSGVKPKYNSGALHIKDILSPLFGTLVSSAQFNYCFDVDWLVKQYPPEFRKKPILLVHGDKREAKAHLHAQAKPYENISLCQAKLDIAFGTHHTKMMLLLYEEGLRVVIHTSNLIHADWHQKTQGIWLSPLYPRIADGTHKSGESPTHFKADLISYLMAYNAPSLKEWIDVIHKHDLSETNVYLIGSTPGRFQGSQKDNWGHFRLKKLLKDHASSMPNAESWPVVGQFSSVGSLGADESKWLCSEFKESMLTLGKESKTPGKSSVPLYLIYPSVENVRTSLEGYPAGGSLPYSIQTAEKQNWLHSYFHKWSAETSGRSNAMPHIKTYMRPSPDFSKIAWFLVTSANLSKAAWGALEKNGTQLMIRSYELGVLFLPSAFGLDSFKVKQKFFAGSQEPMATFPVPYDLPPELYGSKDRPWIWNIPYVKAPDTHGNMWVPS
In data set [9] the test system is PC-3. Description: Cytotoxicity against human PC-3 cells incubated for 72 hrs by MTT assay. It counts as functional.
Data set [10] deals with RD. Description: Cytotoxicity against human RD cells incubated for 72 hrs by MTT assay. It counts as functional.
The nature of data set [11]: Cytotoxicity against HEK293 cells incubated for 72 hrs by MTT assay. The conditions noted are these: human. It counts as toxicity, cell-based.
Data set [12] in a line: Cytotoxicity against human HeLa-V cells incubated for 72 hrs by MTT assay. It counts as functional.
The subject of data set [13] is HepG2. The experiment in a line: Cytotoxicity against human HepG2 cells incubated for 72 hrs by MTT assay. It counts as functional.
Data set [14] in a line: Cytotoxicity against human Mel-MS cells incubated for 72 hrs by MTT assay. It counts as functional.
Data set [15] is described as follows: Cytotoxicity against human HeLa-V cells assessed as cell viability at <=12.5 uM incubated for 72 hrs in presence of 0.5 uM topotecan by MTT assay relative to control. It counts as functional. As to conditions: up to 12.5 µM.
Data set [16] in a line: Sensitization of topotecan-induced cytotoxicity against human HeLa-V cells assessed as reduction in cell viability by measuring fold change in topotecan CC50 at 10 uM incubated for 72 hrs by MTT assay relative to topotecan alone. It counts as functional.

Turning to `CC(C)[C@@H]1CC[C@]2(COC(=O)c3ccccc3)CC[C@]3(C)[C@H](CC[C@@H]4[C@@]5(C)/C(=N/O)[C@H]6O[C@H]6C(C)(C)[C@@H]5CC[C@]43C)[C@@H]12`, the CC50 in data set [1] was over 100 µM; in data set [2], over 100 µM; in [3], over 100 µM; in data set [4] it was over 100 µM; in [5], 13.1 µM; in [6], over 100 µM. Moreover, the CC50 in data set [9] was 62.2 µM; in data set [10] it was over 100 µM; in data set [12] it was 28 µM; in data set [13] it was over 100 µM; in data set [14], over 100 µM. In addition, the CC50 at 72 h in [7] and in data set [11] was over 100 µM each time. In data set [8], this molecule displayed an IC50 of 2 µM.
`CC(C)[C@@H]1CC[C@]2(CO)CC[C@]3(C)[C@H](CC[C@@H]4[C@@]5(C)O[C@H](CC#N)C(C)(C)[C@@H]5CC[C@]43C)[C@@H]12`: the CC50 is 89.9 µM in data set [1]; 39.2 µM in data set [2]; over 100 µM in data set [3]; over 100 µM in data set [4]; 14.8 µM in [5]; over 100 µM in data set [6]. In addition, the CC50 in [9] is over 100 µM; in data set [10], 79 µM; in data set [12], 31.6 µM; in [13], over 200 µM; in [14], over 100 µM. The CC50 at 72 h in data set [7] and in data set [11] was over 100 µM each time. The IC50 in [8] came out at 1 µM. Further, the Activity in data set [15] is about 80%.
For the molecule `C=C1[C@H](C(C)(C)[C@@H](O)CC#N)CC[C@]2(C)[C@@H]1CC[C@@H]1[C@H]3[C@H](C(C)C)CC[C@]3(COC(=O)c3ccccc3)CC[C@]12C`, the “fold change (FC)” value in [16] is under 1.5. For the same molecule, the CC50 in data set [1] is over 100 µM; in data set [2] it was over 100 µM; in data set [3], over 100 µM; in data set [4] it was over 100 µM; in data set [5], at most 35.1 µM; in data set [6], over 100 µM. Moreover, the cytotoxic concentration (CC50) in data set [9], in data set [10], in [12], in [13] and in [14] was over 100 µM throughout. Besides, the half-maximal cytotoxic concentration (CC50) at 72 h in [7] and in data set [11] was over 100 µM throughout. Besides, the IC50 in data set [8] was found to be 1.97 µM. The Activity in data set [15] is listed as about 80%.
`CC(C)[C@@H]1CC[C@]2(COC(=O)c3ccccc3)CC[C@]3(C)[C@H](CC[C@@H]4[C@@]5(C)[C@@H](O)[C@H]6O[C@H]6C(C)(C)[C@@H]5CC[C@]43C)[C@@H]12`: the CC50 in [1], in data set [2], in data set [3], in data set [4], in data set [6] and in [9] was over 100 µM in each case. Also, the CC50 in data set [10], in data set [12], in data set [13] and in data set [14] was over 100 µM each time. Moreover, the CC50 at 72 h in [7] and in [11] was over 100 µM throughout. Besides, half-maximal inhibition in data set [8] (IC50) was put at 5.1 µM.
